Assay results published in patent US20240150356A1, “Pyrimidine amide compounds and use thereof” (ALPHALA CO., LTD., priority 2019, published 2024).
Read-outs that look alike come from different tables or passages of the source.

How the values were obtained:
Assay type in all cases: cell-based
[1] = system: Hep3B cells (hepatocellular carcinoma cell line); experiment: In vitro MTS cell viability assay (NCI-60 methodology), Hep3B; conditions: Homo sapiens, 48 h, 2 days drug incubation, 50% reduction vs time zero, read-out: Hep3B LC50
In short: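 Following NCI-60 method, MTS viability of Hep3B measured 24 h after plating (time zero) and after a further 2-day exposure to five concentrations (2-fold series). LC50 defined where [(Ti−Tz)/Tz]×100 = −50.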

[2] = system: SW480 (colon adenocarcinoma cell line); experiment: In vitro MTS cell viability assay (NCI-60 methodology), SW480; conditions: Homo sapiens, SW480 cells, read-out: SW480 LC50
Description: (§1) The cell viability measurement is based on the NCI-60 screening methodology (Nat. Rev. Cancer 6, 813-823, 2006). Briefly, cells are inoculated into 96-well plates at the optimal plating density. After 24 h, one of the two plates for Hep3B cell line is processed to determine a time zero cell viability (Tz) by MTS assay (Promega). Compounds are added over a 2-fold serial dilution to provide a total five drug concentrations plus DMSO control. Plates are incubated for a further 2 days, then measured cell viability by MTS assay [control growth (C) and test growth in the presence of drug at the five concentration levels (Ti)]. The LC50 is calculated from [(Ti−Tz)/Tz]×100=−50, which is the drug concentration resulting in a 50% reduction at the end of the drug treatment as compared to that at the beginning.
(§2) The compounds prepared in Tables 1-10 were tested in three in vitro assays, and the results are shown in Tables 1-10 for Hep3B and Table 11 for SW480 and NCI-H460 shown below. Herein, Hep3B refers to hepatocellular carcinoma cell line, SW480 refers to colon adenocarcinoma cell line, and NCI-H460 refers to human lung cancer cell line.
(§3) Shown in Tables 11 are in vitro activities of exemplary compounds of formula (I).

[3] = system: NCI-H460 (human lung cancer cell line); experiment: In vitro MTS cell viability assay (NCI-60 methodology), NCI-H460; conditions: NCI-H460 cells, read-out: NCI-H460 LC50
Description: as §1, §2, §3

SMILES	LC50 ([1]; Table 5, MTS) [nM]	CC50 [2] [nM]	CC50 [3] [nM]	LC50 ([1]; Table 9, MTS) [nM]	LC50 ([1]; Table 10, MTS) [nM]	LC50 ([1]; Table 4, MTS) [nM]	LC50 ([1]; Table 6, MTS) [nM]
O=C(Nc1nc(-c2ccc(Cl)nc2)nc2c1cnn2-c1ccccc1)c1ccc([N+](=O)[O-])s1 [Compound 5-31, N-(6-(6-chloropyridin-3-yl)-1-phenyl-1H-pyrazolo[3,4-d]pyrimidin-4-yl)-5-nitrothiophene-2-carboxamide]	100	860	410	–	–	–	–
CC(C)(C)OC(=O)N1CCC(n2ncc3c(NC(=O)c4ccc([N+](=O)[O-])s4)nc(-c4ccc(Cl)cc4)nc32)CC1 [Compound 9-5, tert-butyl 4-(6-(4-chlorophenyl)-4-(5-nitrothiophene-2-carboxamido)-1H-pyrazolo [3,4-d]pyrimidin-1-yl)piperidine-1-carboxylate]	–	2780	1300	450	–	–	–
O=C(Nc1nc(-c2ccc(C(F)(F)F)cc2)nc2c1cnn2-c1ccccc1)c1ccc([N+](=O)[O-])s1 [Compound 5-39, 5-nitro-N-(1-phenyl-6-(4-(trifluoromethyl)phenyl)-1H-pyrazolo[3,4-d]pyrimidin-4-yl)thiophene-2-carboxamide]	320	> 10000	1250	–	–	–	–
COC(=O)c1ccc(-c2nc(NC(=O)c3ccc([N+](=O)[O-])s3)c3cnn(C4CCCCC4)c3n2)cc1 [Compound 10-32, methyl 4-(1-cyclohexyl-4-(5-nitrothiophene-2-carboxamido)-1H-pyrazolo[3,4-d]pyrmidin-6-yl)benzoate]	–	1210	1720	–	400	–	–
Cc1csc2c(NC(=O)c3ccc([N+](=O)[O-])s3)nc(-c3ccc(C(F)(F)F)cc3)nc12 [Compound 4-2, N-(7-methyl-2-(4-(trifluoromethyl)phenyl)thieno[3,2-d]pyrimidin-4-yl)-5-nitrothiophene-2-carboxamide]	–	10100	1650	–	–	970	–
O=C(Nc1nc(-c2ccc(Cl)nc2)nc2c1cnn2-c1ccc(F)cc1)c1ccc([N+](=O)[O-])s1 [Compound 6-119, N-(6-(6-chloropyridin-3-yl)-1-(4-fluorophenyl)-1H-pyrazolo[3,4-d]pyrimidin-4-yl)-5-nitrothiophene-2-carboxamide]	–	690	530	–	–	–	80
O=C(Nc1nc(-c2ccc(F)nc2)nc2c1cnn2-c1ccc(C(F)(F)F)cc1)c1ccc([N+](=O)[O-])s1 [Compound 6-54, N-(6-(6-fluoropyridin-3-yl)-1-(4-(trifluoromethyl)phenyl)-1H-pyrazolo[3,4-d]pyrimidin-4-yl)-5-nitrothiophene-2-carboxamide]	–	340	330	–	–	–	130
CCOc1ccc(-c2nc(NC(=O)c3ccc([N+](=O)[O-])s3)c3cnn(C4CCCCC4)c3n2)cn1 [Compound 10-23, N-(1-cyclohexyl-6-(6-ethoxypyridin-3-yl)-1H-pyrazolo[3,4-d]pyrimidin-4-yl)-5-nitrothiophene-2-carboxamide]	–	1660	3010	–	570	–	–
COC(=O)c1ccc(-c2nc(NC(=O)c3ccc([N+](=O)[O-])s3)c3cnn(C4CCN(C(=O)OC(C)(C)C)CC4)c3n2)cc1 [Compound 9-3, tert-butyl 4-(6-(4-(methoxycarbonyl)phenyl)-4-(5-nitrothiophene-2-carboxamido)-1H-pyrazolo[3,4-d]pyrmidin-1-yl)piperidine-1-carboxylate]	–	2720	1220	420	–	–	–
CCOCCOCCOc1ccc(-c2nc(NC(=O)c3ccc([N+](=O)[O-])s3)c3cnn(-c4cccc(Cl)c4)c3n2)cn1 [Compound 6-45, N-(1-(3-chlorophenyl)-6-(6-(2-(2-ethoxyethoxy)ethoxy)pyridin-3-yl)-1H-pyrazolo[3,4-d]pyrimidin-4-yl)-5-nitrothiophene-2-carboxamide]	–	580	570	–	–	–	220
